According to patent US7074789B2, “Kinase inhibitors” (Amgen Inc., priority 1999, dated 2006):

Experiments:
Assay type in all cases: biochemical
Kdr = target: T1, Kdr (Homo sapiens, UniProt P35968); test: Kinase inhibition assay (33P transfer), Kdr; details: Table 3; read-out: KDR-1
T1 construct: Kinases are expressed as either kinase domains or full length constructs; made in house
Method in brief: (§1)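 Enzyme activity is taken as the amount of 33PO4 moved from ATP onto poly(Glu, Tyr) 4:1 or poly(Arg, Ser) 3:1 fixed to the plate surface. Unbound label is removed with 0.5% phosphoric acid before scintillation counting.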

IGFR-1 = target: T2, IGFR-1 (Homo sapiens, UniProt P08069); test: Kinase inhibition assay (33P transfer), IGFR-1; details: Table 2, kinase inhibition class
T2 construct: Kinases are expressed as either kinase domains or full length constructs; made in house
T2 sequence (P08069 31-1367): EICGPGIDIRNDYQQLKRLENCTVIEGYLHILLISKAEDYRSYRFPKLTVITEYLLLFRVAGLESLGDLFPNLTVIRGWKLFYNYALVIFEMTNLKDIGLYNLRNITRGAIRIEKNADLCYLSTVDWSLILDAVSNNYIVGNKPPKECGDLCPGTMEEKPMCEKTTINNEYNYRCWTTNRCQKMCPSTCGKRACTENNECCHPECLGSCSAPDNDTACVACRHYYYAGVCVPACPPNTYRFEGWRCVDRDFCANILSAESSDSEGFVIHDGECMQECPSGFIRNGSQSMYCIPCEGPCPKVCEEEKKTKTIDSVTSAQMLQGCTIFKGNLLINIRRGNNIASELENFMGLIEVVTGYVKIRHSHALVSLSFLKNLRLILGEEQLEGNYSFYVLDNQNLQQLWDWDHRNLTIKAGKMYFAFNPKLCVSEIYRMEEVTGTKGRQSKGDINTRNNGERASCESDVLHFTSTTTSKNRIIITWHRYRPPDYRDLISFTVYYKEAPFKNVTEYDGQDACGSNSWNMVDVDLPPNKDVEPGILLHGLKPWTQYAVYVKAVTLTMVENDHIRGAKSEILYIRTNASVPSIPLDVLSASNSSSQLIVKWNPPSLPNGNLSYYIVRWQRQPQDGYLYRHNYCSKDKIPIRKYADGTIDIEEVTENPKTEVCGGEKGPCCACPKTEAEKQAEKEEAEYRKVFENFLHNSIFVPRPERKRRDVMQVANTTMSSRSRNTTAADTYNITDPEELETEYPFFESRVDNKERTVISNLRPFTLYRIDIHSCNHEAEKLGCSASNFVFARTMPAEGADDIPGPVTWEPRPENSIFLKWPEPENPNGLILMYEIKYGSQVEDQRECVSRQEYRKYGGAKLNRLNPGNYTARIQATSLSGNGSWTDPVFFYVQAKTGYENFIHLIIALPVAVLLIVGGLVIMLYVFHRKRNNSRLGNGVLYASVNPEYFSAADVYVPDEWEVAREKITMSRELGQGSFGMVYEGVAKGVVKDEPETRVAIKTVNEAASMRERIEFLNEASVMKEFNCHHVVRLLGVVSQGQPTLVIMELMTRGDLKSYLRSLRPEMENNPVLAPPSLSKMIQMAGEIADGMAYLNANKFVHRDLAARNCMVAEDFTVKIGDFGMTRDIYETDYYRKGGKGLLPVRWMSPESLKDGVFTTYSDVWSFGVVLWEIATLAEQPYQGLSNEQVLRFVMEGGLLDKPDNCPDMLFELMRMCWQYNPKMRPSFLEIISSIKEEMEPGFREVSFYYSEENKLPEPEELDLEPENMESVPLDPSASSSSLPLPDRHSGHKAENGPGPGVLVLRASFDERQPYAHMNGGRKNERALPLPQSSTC

c-Met = target: T3, c-Met (Homo sapiens, UniProt P08581); test: Kinase inhibition assay (33P transfer), c-Met; details: Table 2, kinase inhibition class; read-out: Met-1
T3 construct: Kinases are expressed as either kinase domains or full length constructs; made in house
T3 sequence (P08581 25-1390): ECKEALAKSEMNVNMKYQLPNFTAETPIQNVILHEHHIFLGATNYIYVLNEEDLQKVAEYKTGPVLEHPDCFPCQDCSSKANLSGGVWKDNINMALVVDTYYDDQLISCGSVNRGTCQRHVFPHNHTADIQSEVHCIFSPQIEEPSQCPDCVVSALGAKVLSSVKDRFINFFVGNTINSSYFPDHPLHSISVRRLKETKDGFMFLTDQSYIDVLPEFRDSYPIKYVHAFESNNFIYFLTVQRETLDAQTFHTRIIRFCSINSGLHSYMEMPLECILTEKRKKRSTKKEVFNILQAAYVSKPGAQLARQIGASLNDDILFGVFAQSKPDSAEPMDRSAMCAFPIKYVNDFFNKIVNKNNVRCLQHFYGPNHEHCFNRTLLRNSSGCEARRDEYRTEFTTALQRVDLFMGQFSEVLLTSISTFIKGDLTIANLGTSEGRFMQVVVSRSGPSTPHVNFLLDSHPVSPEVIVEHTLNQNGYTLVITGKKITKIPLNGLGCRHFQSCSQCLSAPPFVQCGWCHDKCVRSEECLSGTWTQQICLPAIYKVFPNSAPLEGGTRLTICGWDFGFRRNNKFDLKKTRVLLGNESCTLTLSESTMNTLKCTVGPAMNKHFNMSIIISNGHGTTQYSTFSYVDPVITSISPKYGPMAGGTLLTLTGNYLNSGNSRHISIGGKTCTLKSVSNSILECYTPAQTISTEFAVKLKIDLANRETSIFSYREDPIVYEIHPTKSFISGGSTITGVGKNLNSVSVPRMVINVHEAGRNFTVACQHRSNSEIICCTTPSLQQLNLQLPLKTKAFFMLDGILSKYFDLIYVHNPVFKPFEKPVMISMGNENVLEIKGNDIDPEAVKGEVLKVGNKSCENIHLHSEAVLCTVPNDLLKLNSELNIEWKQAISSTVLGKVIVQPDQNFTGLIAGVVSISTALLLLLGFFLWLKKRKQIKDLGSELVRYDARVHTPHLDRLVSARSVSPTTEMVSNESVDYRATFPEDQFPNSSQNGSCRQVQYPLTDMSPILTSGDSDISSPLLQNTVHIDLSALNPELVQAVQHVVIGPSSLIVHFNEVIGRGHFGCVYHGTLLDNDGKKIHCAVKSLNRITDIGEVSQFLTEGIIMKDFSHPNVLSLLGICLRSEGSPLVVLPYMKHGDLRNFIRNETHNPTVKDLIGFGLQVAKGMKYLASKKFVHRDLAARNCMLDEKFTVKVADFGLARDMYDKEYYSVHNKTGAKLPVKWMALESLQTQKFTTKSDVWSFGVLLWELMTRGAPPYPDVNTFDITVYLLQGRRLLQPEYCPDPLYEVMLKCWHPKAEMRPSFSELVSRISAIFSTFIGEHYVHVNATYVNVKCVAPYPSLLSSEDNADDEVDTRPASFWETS
Method in brief: (§2)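 GST/His-fusion kinases, E. coli or High Five expressed, affinity purified; 33P-ATP, plate-coated poly(Glu,Tyr) 4:1 or poly(Arg,Ser) 3:1; 0.5% H3PO4 wash, scintillant, LSC.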

Itk = target: T4, Itk (Homo sapiens, UniProt Q08881); test: Kinase inhibition assay (33P transfer), Itk; details: Table 3; read-out: Itk-1
T4 construct: Kinases are expressed as either kinase domains or full length constructs; made in house
T4 sequence (Q08881 1-620): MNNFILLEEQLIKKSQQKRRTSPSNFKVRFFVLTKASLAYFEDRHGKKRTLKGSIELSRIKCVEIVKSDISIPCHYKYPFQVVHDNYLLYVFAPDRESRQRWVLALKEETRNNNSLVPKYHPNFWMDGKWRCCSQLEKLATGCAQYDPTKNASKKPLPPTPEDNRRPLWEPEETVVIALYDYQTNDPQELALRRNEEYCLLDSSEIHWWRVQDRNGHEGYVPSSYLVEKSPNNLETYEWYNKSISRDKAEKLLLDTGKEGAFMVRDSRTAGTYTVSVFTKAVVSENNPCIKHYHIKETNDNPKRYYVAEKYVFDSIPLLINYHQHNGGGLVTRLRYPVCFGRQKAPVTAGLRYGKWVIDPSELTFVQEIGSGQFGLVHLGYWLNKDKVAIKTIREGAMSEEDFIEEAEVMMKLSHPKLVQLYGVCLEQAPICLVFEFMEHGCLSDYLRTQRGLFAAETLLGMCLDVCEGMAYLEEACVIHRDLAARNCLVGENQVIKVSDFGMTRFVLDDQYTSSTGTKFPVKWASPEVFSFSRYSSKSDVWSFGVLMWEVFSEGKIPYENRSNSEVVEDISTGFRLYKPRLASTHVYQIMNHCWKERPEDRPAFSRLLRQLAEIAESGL
Method in brief: as §2

Zap-70 = target: T5, Zap-70 (Homo sapiens, UniProt P43403); test: Kinase inhibition assay (33P transfer), Zap-70; details: Table 3; read-out: Zap-1
T5 construct: Kinases are expressed as either kinase domains or full length constructs; made in house
T5 sequence (P43403 1-619): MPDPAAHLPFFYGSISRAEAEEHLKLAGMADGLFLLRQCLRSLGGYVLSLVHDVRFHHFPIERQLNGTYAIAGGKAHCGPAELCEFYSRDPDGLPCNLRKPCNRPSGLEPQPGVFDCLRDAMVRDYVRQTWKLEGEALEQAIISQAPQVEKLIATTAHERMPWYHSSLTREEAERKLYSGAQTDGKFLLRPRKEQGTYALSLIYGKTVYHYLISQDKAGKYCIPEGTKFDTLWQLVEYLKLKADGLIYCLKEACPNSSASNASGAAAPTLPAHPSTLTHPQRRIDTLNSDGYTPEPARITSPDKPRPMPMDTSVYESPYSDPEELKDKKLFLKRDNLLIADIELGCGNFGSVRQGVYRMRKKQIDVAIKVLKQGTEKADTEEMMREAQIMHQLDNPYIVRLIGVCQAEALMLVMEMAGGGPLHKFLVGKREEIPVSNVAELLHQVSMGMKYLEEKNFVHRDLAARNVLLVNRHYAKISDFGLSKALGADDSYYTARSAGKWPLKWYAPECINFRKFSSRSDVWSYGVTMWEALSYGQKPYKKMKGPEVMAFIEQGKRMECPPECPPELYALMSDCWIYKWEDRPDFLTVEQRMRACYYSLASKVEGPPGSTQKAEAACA
Method in brief: as §1

AKT = target: T6, AKT (Homo sapiens, UniProt Q9Y243); test: Kinase inhibition assay (33P transfer), AKT; details: Table 2, kinase inhibition class; read-out: AKT3-1
T6 construct: Kinases are expressed as either kinase domains or full length constructs; made in house
Method in brief: as §1

EGFR = target: T7, EGFR (Homo sapiens, UniProt P00533); test: Kinase inhibition assay (33P transfer), EGFR; details: Table 2, kinase inhibition class; read-out: EGFR-1
T7 construct: Kinases are expressed as either kinase domains or full length constructs; made in house
T7 sequence (P00533 25-1210, species assumed): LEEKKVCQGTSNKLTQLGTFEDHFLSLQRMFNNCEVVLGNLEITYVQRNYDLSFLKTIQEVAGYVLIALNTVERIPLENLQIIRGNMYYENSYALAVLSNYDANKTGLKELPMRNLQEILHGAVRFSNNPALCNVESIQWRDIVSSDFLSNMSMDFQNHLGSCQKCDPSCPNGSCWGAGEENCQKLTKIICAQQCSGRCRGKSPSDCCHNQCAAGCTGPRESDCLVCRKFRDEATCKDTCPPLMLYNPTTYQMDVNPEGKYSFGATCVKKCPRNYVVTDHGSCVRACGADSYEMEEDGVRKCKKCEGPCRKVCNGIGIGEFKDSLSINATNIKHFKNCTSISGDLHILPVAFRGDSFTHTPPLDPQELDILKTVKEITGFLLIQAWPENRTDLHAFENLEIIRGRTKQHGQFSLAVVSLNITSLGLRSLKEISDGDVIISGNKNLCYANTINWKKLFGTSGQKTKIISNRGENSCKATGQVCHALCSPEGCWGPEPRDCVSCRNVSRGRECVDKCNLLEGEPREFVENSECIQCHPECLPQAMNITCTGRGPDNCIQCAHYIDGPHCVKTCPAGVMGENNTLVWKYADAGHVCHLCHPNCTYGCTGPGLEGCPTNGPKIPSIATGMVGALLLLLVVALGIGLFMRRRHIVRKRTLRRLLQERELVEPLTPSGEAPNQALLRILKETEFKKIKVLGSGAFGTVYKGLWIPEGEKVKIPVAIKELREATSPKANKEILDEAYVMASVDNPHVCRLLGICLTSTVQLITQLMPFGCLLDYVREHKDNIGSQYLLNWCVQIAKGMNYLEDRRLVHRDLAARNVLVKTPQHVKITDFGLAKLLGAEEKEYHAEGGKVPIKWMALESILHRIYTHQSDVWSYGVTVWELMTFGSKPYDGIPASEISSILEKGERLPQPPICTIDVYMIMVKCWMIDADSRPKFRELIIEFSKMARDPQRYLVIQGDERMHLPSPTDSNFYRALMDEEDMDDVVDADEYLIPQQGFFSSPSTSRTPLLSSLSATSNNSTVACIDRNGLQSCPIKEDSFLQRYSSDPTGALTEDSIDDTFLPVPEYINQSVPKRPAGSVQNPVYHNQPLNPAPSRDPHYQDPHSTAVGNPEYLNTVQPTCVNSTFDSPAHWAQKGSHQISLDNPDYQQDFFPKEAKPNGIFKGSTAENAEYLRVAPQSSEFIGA
Method in brief: as §2

EPHB4 = target: T8, EPHB4 (Homo sapiens, UniProt P54760); test: Kinase inhibition assay (33P transfer), EPHB4; details: read-out: EPHB4-1
T8 construct: Kinases are expressed as either kinase domains or full length constructs; made in house
T8 sequence (P54760 16-987): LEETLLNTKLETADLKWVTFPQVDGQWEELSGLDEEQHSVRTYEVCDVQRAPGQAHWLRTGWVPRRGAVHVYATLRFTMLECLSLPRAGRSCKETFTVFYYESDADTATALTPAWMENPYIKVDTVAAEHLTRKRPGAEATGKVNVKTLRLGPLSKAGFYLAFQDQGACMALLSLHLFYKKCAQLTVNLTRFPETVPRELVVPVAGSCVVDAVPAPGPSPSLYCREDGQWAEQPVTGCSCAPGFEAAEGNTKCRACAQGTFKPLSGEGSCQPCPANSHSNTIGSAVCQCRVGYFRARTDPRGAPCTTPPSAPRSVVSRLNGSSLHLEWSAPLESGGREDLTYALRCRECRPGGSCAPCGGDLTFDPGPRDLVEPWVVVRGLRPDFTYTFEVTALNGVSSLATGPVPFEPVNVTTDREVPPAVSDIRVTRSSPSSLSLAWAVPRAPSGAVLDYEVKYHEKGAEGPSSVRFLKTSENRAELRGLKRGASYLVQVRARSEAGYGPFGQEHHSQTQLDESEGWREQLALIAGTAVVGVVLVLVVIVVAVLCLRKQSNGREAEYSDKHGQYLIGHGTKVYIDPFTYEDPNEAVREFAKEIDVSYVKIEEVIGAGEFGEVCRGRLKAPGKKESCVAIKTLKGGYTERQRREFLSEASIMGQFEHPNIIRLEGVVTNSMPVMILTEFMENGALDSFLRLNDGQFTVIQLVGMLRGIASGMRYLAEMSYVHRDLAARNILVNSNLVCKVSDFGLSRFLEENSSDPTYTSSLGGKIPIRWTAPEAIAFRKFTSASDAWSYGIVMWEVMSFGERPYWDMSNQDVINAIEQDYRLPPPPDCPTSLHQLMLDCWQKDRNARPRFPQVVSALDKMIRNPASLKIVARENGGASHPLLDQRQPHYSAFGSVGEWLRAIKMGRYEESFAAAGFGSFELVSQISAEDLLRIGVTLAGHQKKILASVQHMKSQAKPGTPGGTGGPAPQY

Lck = target: T9, Lck (Homo sapiens, UniProt P06239); test: Kinase inhibition assay (33P transfer), Lck; details: Table 3; read-out: Lck-1
T9 construct: Kinases are expressed as either kinase domains or full length constructs; made in house
Method in brief: as §1

Tek = target: T10, Tek (Homo sapiens, UniProt Q02763); test: Kinase inhibition assay (33P transfer), Tek; details: read-out: Tek-1
T10 construct: Kinases are expressed as either kinase domains or full length constructs; made in house
T10 sequence (Q02763 23-1124, species assumed): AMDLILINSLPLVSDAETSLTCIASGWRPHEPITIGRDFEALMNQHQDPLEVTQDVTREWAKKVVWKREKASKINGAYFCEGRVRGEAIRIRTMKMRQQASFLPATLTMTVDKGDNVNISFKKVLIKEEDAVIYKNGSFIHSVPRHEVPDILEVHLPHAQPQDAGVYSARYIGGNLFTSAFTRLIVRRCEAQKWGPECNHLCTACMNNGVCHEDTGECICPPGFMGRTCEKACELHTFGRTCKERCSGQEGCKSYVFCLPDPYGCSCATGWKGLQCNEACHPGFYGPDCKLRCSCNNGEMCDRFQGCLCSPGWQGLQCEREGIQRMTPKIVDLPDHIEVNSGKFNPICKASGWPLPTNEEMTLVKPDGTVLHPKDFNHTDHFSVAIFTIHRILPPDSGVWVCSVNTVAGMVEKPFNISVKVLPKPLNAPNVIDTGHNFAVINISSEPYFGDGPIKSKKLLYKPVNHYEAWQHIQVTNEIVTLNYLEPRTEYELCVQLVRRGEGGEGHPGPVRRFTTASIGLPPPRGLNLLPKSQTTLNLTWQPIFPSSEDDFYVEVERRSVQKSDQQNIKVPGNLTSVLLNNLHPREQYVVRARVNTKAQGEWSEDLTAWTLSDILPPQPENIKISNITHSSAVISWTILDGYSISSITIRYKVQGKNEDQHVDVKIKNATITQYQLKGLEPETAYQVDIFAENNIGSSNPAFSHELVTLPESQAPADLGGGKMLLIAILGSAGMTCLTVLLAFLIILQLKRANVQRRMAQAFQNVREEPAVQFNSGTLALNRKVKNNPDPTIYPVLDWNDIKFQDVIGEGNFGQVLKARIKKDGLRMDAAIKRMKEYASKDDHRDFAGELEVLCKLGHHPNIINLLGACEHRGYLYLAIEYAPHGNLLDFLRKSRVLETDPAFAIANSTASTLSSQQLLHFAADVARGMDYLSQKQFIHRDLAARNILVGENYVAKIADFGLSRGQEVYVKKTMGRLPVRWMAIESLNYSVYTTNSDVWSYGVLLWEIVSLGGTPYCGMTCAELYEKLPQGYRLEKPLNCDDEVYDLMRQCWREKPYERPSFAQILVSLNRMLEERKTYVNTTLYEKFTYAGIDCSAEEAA
Method in brief: as §2

| Compound | IC50 (Kdr) [µM] | IC50 (IGFR-1) [µM] | IC50 (c-Met) [µM] | IC50 (Itk) [µM] | IC50 (Zap-70) [µM] | IC50 (AKT) [µM] | IC50 (EGFR) [µM] | IC50 (EPHB4) [µM] | IC50 (Lck) [µM] | IC50 (Tek) [µM] |
| --- | --- | --- | --- | --- | --- | --- | --- | --- | --- | --- |
| COc1cc(Nc2ncnc(-n3c(Nc4ccc(Cl)cc4)nc4ccccc43)n2)cc(OC)c1OC [Compound 375] | 0.794 to 4.76 | > 8.93 | > 8.93 | > 8.93 | > 8.93 | > 8.93 | > 8.93 | > 8.93 | 4.76 to 6.95 | > 8.93 |
| COc1cc(Nc2ncnc(N3CCC(O)CC3)n2)cc(OC)c1OC [Compound 208] | 1.11 to 6.64 | > 12.5 | 9.68 to 12.5 | > 12.5 | > 12.5 | > 12.5 | > 12.5 | > 12.5 | > 12.5 | > 12.5 |
| COc1cc(Nc2ncnc(-c3cccc(Cl)c3)n2)cc(OC)c1OC [Compound 220] | > 12.1 | > 12.1 | > 12.1 | > 12.1 | > 12.1 | > 12.1 | > 12.1 | > 12.1 | > 12.1 | > 12.1 |
| COC(=O)c1ccc(Nc2ncnc(Nc3cc(-c4ccco4)n[nH]3)n2)cc1 [Compound 366] | > 11.9 | 1.06 to 6.36 | > 11.9 | > 11.9 | 6.36 to 9.27 | > 11.9 | > 11.9 | 1.06 to 6.36 | 6.36 to 9.27 | > 11.9 |
| COc1cc(Nc2ncnc(Nc3nc4ccc(F)cc4s3)n2)cc(OC)c1OC [Compound 317] | 0.934 to 5.6 | 0.934 to 5.6 | 0.934 to 5.6 | > 10.5 | > 10.5 | > 10.5 | > 10.5 | 5.6 to 8.17 | 0.934 to 5.6 | 8.17 to 10.5 |
| COc1cc(Nc2ncnc(Nc3[nH]ncc3-c3cccs3)n2)cc(OC)c1OC [Compound 368] | > 10.6 | > 10.6 | > 10.6 | > 10.6 | > 10.6 | > 10.6 | > 10.6 | > 10.6 | 8.23 to 10.6 | > 10.6 |
| COc1cc(Nc2ncnc(Nc3ccc(F)cc3)n2)cc(OC)c1OC [Compound 303] | 1.08 to 6.46 | 1.08 to 6.46 | > 12.1 | > 12.1 | > 12.1 | > 12.1 | 1.08 to 6.46 | 9.42 to 12.1 | 1.08 to 6.46 | 1.08 to 6.46 |
| COc1cc(NC(=O)Nc2ncnc(Nc3cc(OC)c(OC)c(OC)c3)n2)cc(OC)c1 [Compound 22] | > 9.86 | > 9.86 | > 9.86 | > 9.86 | > 9.86 | > 9.86 | > 9.86 | > 9.86 | > 9.86 | 7.67 to 9.86 |
| COc1cc(Nc2ncnc(N(CC(=O)OC(C)(C)C)c3ccc(Cl)cc3)n2)cc(OC)c1OC [Compound 291] | 4.78 to 6.97 | > 8.96 | > 8.96 | > 8.96 | > 8.96 | > 8.96 | 0.797 to 4.78 | 6.97 to 8.96 | 4.78 to 6.97 | 6.97 to 8.96 |
| CCOc1ccc(Nc2ncnc(-n3c(N)nc4ccccc43)n2)cc1OCC [Compound 299] | 1.02 to 6.13 | 6.13 to 8.94 | 1.02 to 6.13 | > 11.5 | 1.02 to 6.13 | 1.02 to 6.13 | 6.13 to 8.94 | > 11.5 | 8.94 to 11.5 | 6.13 to 8.94 |
| COc1cc(Nc2ncnc(NN3CCOCC3)n2)cc(OC)c1OC [Compound 103] | > 12.4 | 6.62 to 9.66 | > 12.4 | > 12.4 | > 12.4 | 1.1 to 6.62 | > 12.4 | 1.1 to 6.62 | > 12.4 | > 12.4 |
| Oc1ccc(Nc2ncnc(Nc3ccc(OCc4ccccc4)cc3)n2)cc1 [Compound 158] | 1.04 to 6.23 | 6.23 to 9.08 | 1.04 to 6.23 | > 11.7 | 1.04 to 6.23 | 1.04 to 6.23 | 1.04 to 6.23 | 1.04 to 6.23 | 9.08 to 11.7 | 6.23 to 9.08 |
| COc1cc(Nc2ncnc(Nc3ccc(NCc4ccccc4)cc3)n2)cc(OC)c1OC [Compound 93] | > 9.81 | > 9.81 | > 9.81 | > 9.81 | > 9.81 | > 9.81 | > 9.81 | > 9.81 | > 9.81 | > 9.81 |
| COc1ccc(Oc2ncnc(Nc3cc(OC)c(OC)c(OC)c3)n2)cc1 [Compound 174] | < 1.04 | > 11.7 | > 11.7 | > 11.7 | > 11.7 | > 11.7 | 6.24 to 9.11 | > 11.7 | > 11.7 | > 11.7 |
| COc1ccc(Nc2ncnc(N(CC(=O)OC(C)(C)C)c3ccc(Cl)cc3)n2)cc1OC [Compound 973] | > 9.54 | > 9.54 | > 9.54 | > 9.54 | > 9.54 | > 9.54 | 0.848 to 5.09 | 5.09 to 7.42 | 5.09 to 7.42 | > 9.54 |
